From US20070249725A1, “Pharmaceutical formulations of sympathetic antagonist for the treatment of chronic muscle pain” (priority 2006, published 2007)
Counter-ions that a name gives are not always drawn.

Assay: pH of phenoxybenzamine formulations
Format: physicochemical
Settings: active solutions
Experimental: This was a multicenter, randomized, placebo-controlled, double-blind, dose response study of intramuscular phenoxybenzamine hydrochloride (PBZ) versus vehicle and saline placebos. Phenoxybenzamine formulation known in the art (propylene glycol and alcohol) and diluted in saline at the time of injection were evaluated. […] Patients with pain in the most commonly affected regions, the upper and lower back, were studied. Patients enrolled in this study were male or female with 4 months to 8 years of myofascial pain syndrome with identifiable active trigger points. Patients were required to have had EMG documented triggers points and meet the criteria of <10 uV in the adjacent muscle site and have a minimum of a 2:1 ratio of trigger point amplitude: adjacent amplitude. Attempts were made to obtain maximum amplitude in the trigger point.
For determination of the pH value of the active solutions, a 5% solution of the Phenoxybenzamine HCL measured 3.25. Examples of packaging material include 2-mL vials, Pharmatek Lot No. 0001, Part No. PTC-0001; rubber stoppers, Pharmatek Lot No. 0002, Part No. PTC-0002; Truedge® seals, Pharmatek Lot No. 0003, Part No. PTC-0003; Supor® filters, Pharmatek Lot No. 0005, Part No. PTC-0004; and labels, to be generated by PrimaPharm Inc. These can be supplied in the form of a kit.

## CC(COc1ccccc1)N(CCCl)Cc1ccccc1 (stereo not shown) [Phenoxybenzamine Hydrochloride, phenoxybenzamine hydrochloride]
  pH of a 5% solution: 3.25
